According to ChEMBL document CHEMBL1201862, “PubChem BioAssay data set” (2004):
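Dose response: 5 concentrations. Exposure: 48 h. Format: 96-well plates. Endpoint: linear interpolation; highest concentration if not reached. At the GI50, growth is halved.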 The source made the active and inactive calls. No stated cut-off is given here; in the data, active = GI50 up to about 1.1 µM and inactive = higher.

What was measured:
Test in all cases: growth of human tumour cells (NCI), 48 h
CAKI-1 = tested on: CAKI-1
CCRF-CEM = tested on: CCRF-CEM
COLO 205 = tested on: COLO 205
HCC 2998 = tested on: HCC 2998
HOP-62 = tested on: HOP-62
HT-29 = tested on: HT-29
K562 = tested on: K562
M14 = tested on: M14
Malme-3M = tested on: Malme-3M
NCI-H460 = tested on: NCI-H460
NCI-H522 = tested on: NCI-H522
OVCAR-4 = tested on: OVCAR-4
OVCAR-5 = tested on: OVCAR-5
OVCAR-8 = tested on: OVCAR-8
RXF 393 = tested on: RXF 393
SF-268 = tested on: SF-268
SR = tested on: SR

SMILES	GI50 (CAKI-1)	GI50 (CCRF-CEM)	GI50 (COLO 205)	GI50 (HCC 2998)	GI50 (HOP-62)	GI50 (HT-29)	GI50 (K562)	GI50 (M14)	GI50 (Malme-3M)	GI50 (NCI-H460)	GI50 (NCI-H522)	GI50 (OVCAR-4)	GI50 (OVCAR-5)	GI50 (OVCAR-8)	GI50 (RXF 393)	GI50 (SF-268)	GI50 (SR)
Cc1c2ccncc2c(C)c2c1[nH]c1ccc(OC(C)C)cc12	1.6 µM (inactive)	1.15 µM (inactive)	1.32 µM (inactive)	2.03 µM (inactive)	1.35 µM (inactive)	1.32 µM (inactive)	1.13 µM (inactive)	1.6 µM (inactive)	1.58 µM (inactive)	1.03 µM (active)	1.63 µM (inactive)	1.71 µM (inactive)	1.48 µM (inactive)	1.04 µM (active)	1.33 µM (inactive)	1.43 µM (inactive)	0.668 µM (active)
COc1cccc([C@@]2(O)c3c(ccc(O)c3OC)[C@H]2OC)c1OC	22.6 µM (inactive)	45.4 µM (inactive)		25.7 µM (inactive)	60.5 µM (inactive)	28.1 µM (inactive)	44.5 µM (inactive)	30.5 µM (inactive)	46.2 µM (inactive)	47.4 µM (inactive)	16.3 µM (inactive)	39.7 µM (inactive)	> 100 µM (inactive)	38.5 µM (inactive)		33.8 µM (inactive)	38.5 µM (inactive)
O=C(N/N=C/c1ccccc1O)c1cccc([N+](=O)[O-])c1		3.03 µM (inactive)	20.9 µM (inactive)	30.5 µM (inactive)		5.93 µM (inactive)	22.4 µM (inactive)	14.7 µM (inactive)	30.8 µM (inactive)	4.68 µM (inactive)	32.7 µM (inactive)	50.5 µM (inactive)	22.4 µM (inactive)	6.95 µM (inactive)	8.95 µM (inactive)	15.7 µM (inactive)	3.78 µM (inactive)
Cc1ccc(C)c(NC(=O)CC2SC(Nc3ccccc3Cl)=NC2=O)c1 (stereo not drawn)	65.8 µM (inactive)	22.1 µM (inactive)	> 100 µM (inactive)	> 100 µM (inactive)	> 100 µM (inactive)	> 100 µM (inactive)		> 100 µM (inactive)	> 100 µM (inactive)	> 100 µM (inactive)	27 µM (inactive)	65.9 µM (inactive)	> 100 µM (inactive)	> 100 µM (inactive)	90.8 µM (inactive)	> 100 µM (inactive)	8.61 µM (inactive)
COc1cc(-c2nnc3n2NC=C(C(=O)O)S3)cc(OC)c1OC	> 100 µM (inactive)	29.7 µM (inactive)	> 57.5 µM (inactive)	> 100 µM (inactive)	> 100 µM (inactive)	> 100 µM (inactive)	> 43.1 µM (inactive)	> 81.3 µM (inactive)	> 100 µM (inactive)	> 71.4 µM (inactive)	> 100 µM (inactive)	> 62.2 µM (inactive)	> 100 µM (inactive)	> 100 µM (inactive)	> 100 µM (inactive)	> 76.9 µM (inactive)	41.6 µM (inactive)
COc1ccc(-c2cc(=O)c3c(O)c(OC)c(O)c(OC)c3o2)cc1OC		33.6 µM (inactive)	92.3 µM (inactive)	> 100 µM (inactive)	44.2 µM (inactive)	> 100 µM (inactive)	45.9 µM (inactive)	> 100 µM (inactive)	> 100 µM (inactive)		12 µM (inactive)	> 100 µM (inactive)		> 100 µM (inactive)	14.1 µM (inactive)	90.2 µM (inactive)	31.2 µM (inactive)
CCCN1C(=O)CNC(=O)c2[nH]cnc21	> 100 µM (inactive)	> 100 µM (inactive)	> 100 µM (inactive)	> 100 µM (inactive)	> 100 µM (inactive)	> 100 µM (inactive)	> 100 µM (inactive)	> 100 µM (inactive)	> 100 µM (inactive)	> 100 µM (inactive)	> 100 µM (inactive)		> 100 µM (inactive)	> 100 µM (inactive)	> 100 µM (inactive)	> 100 µM (inactive)	> 100 µM (inactive)
COc1cc2ccc3c4cc(OC)c(OC(C)C)cc4c[n+](C)c3c2cc1OC	> 100 µM (inactive)	49.1 µM (inactive)	14.5 µM (inactive)	44.5 µM (inactive)	> 100 µM (inactive)	> 100 µM (inactive)	22.7 µM (inactive)	64.6 µM (inactive)	48.9 µM (inactive)	> 100 µM (inactive)	17.4 µM (inactive)	64 µM (inactive)	> 100 µM (inactive)	39.2 µM (inactive)	27.7 µM (inactive)	32.7 µM (inactive)	47.8 µM (inactive)
CC1(C)CC(=O)C(CC2C(=O)CCCC2=O)C(=O)C1	> 100 µM (inactive)	> 100 µM (inactive)	> 100 µM (inactive)	> 100 µM (inactive)	> 100 µM (inactive)	> 100 µM (inactive)	> 100 µM (inactive)	> 100 µM (inactive)	> 100 µM (inactive)	> 100 µM (inactive)	> 100 µM (inactive)	> 100 µM (inactive)	> 100 µM (inactive)	> 100 µM (inactive)	> 100 µM (inactive)	> 100 µM (inactive)	> 100 µM (inactive)
Cc1ccc(S(=O)(=O)NC(=O)C2(Br)S(=O)(=O)OCCOS2(=O)=O)cc1		> 100 µM (inactive)	> 100 µM (inactive)	> 100 µM (inactive)	> 100 µM (inactive)	> 100 µM (inactive)	> 100 µM (inactive)	> 100 µM (inactive)	> 100 µM (inactive)	> 100 µM (inactive)	> 100 µM (inactive)	> 100 µM (inactive)	> 100 µM (inactive)	> 100 µM (inactive)	> 100 µM (inactive)	> 100 µM (inactive)	> 100 µM (inactive)
COC(=O)C(=O)C(C(=O)C(=O)Nc1ccccc1C(N)=O)c1nc2ccc([N+](=O)[O-])cc2nc1O (stereo not drawn)	> 100 µM (inactive)	> 100 µM (inactive)	> 100 µM (inactive)	> 100 µM (inactive)	> 100 µM (inactive)	> 100 µM (inactive)	> 100 µM (inactive)	> 100 µM (inactive)	> 100 µM (inactive)	> 100 µM (inactive)	> 100 µM (inactive)	> 100 µM (inactive)	> 100 µM (inactive)	> 100 µM (inactive)	> 100 µM (inactive)	> 100 µM (inactive)	> 100 µM (inactive)
Cn1cnc(S[C@H]2[C@H]3C(=O)C=C4S[C@H]5C[C@]42C2=C(N5)C(=O)c4[nH]cc5c4C2=[N+]3CC5)c1C[C@H](N)C(=O)O	27 µM (inactive)	17.1 µM (inactive)	2.11 µM (inactive)	16.2 µM (inactive)		4.09 µM (inactive)	17.3 µM (inactive)	15.4 µM (inactive)	3.72 µM (inactive)	27.5 µM (inactive)	4.58 µM (inactive)	17.1 µM (inactive)	15.1 µM (inactive)	13.6 µM (inactive)	22.1 µM (inactive)	12.1 µM (inactive)	19.1 µM (inactive)
